Experimental data: US6780414B2 (priority 1998, dated 2004)

Biological target: T1, BFT (Bacteroides fragilis, UniProt P54355)
T1 sequence (P54355 26-405): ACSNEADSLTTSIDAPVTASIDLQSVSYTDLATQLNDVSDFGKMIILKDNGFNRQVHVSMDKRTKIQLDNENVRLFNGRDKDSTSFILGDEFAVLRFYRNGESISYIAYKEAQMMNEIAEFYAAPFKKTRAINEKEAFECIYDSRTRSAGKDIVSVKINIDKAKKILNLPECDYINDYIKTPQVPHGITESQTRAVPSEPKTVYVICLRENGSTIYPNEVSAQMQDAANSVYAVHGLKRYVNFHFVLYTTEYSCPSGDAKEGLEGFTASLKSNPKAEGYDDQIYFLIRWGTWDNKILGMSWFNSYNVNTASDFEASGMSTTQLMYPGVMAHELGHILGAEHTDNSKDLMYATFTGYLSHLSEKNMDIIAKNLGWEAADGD
Format: cell-based, Bacterioides fragilis

NCCCCCN [cadaverine, 1,5-diaminopentane]
Effect of Cadaverine, enterotoxicity in Ussing chambers: completely | ΔIsc + cadaverine: 21.5
